From paper PMC9145193 (Molecules, 2022) come the findings set out here.

Broadly, the IC50 is the concentration needed to halve the response being measured. A higher IC50 goes with weaker potency in that assay. Broadly, the inhibition is the drop in the measured response relative to a control, in per cent.

SMILES strings stand for the structures. Values joined by “and” are separate entries in the source; they are usually repeats but may differ in a detail not shown here. Identical values can stand only once. Like-named read-outs stand apart in the source and are kept apart here.

The target in one data set is T1, AChE (Electrophorus electricus, UniProt O42275).
T1 construct: purchased Merck C3389
T1 sequence (O42275 24-633): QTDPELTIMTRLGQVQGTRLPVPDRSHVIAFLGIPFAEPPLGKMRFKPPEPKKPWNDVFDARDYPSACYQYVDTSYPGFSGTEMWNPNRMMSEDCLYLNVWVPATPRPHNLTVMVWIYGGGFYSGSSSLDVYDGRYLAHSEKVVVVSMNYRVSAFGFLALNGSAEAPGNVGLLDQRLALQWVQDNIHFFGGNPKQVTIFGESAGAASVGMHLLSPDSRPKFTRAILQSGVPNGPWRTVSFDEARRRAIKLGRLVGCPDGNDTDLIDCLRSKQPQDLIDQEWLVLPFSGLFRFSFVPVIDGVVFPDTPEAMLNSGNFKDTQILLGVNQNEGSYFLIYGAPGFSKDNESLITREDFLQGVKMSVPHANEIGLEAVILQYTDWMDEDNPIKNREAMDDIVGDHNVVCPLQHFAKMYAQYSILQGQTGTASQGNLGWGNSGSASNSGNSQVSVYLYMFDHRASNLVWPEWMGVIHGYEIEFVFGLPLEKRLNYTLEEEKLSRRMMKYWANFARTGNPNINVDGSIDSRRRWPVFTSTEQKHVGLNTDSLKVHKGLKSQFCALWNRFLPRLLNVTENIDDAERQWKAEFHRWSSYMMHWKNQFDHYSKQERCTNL
Briefly: Kinetic study of AChE inhibition (Lineweaver-Burk). The format is biochemical. The following applies: 10a at 0, 0.8 and 1.6 nM. On the procedure:
The mechanistic inhibition study of compound 10a on the AChE was carried out through kinetic parameters such as maximal velocity (Vmax), inhibitory concentration (Ki) and Michalis–Menten dissociation constant (Km).
Kinetic study of AChE inhibition was carried out using Ellman’s method, which is the same as the AChE assay, to determine the kinetic mechanism of chemical inhibition. The kinetic inhibition of compound 10a was analyzed at concentrations of 0.8 and 1.6nM. Lineweaver–Burk reciprocal plots were created by graphing 1/velocity vs. 1/[substrate] at various concentrations of substrate acetylthiocholine. The software GraphPad Prism 8.0 was used to analyze the data.

Data set [1] has as its target T2, AChE enzyme from electrophorus electricus (eeAChE) (Electrophorus electricus, UniProt O42275).
T2 construct: purchased Merck C3389
Description: biochemical. The following applies: mean ± SEM from three independent experiments. On the procedure:
Donepezil was used as a positive control.
AChE activity was measured by the […] using AChE enzyme from electrophorus electricus (eeAChE) (C3389, Merck, Kenilworth, NJ, USA). AChE solution (2 U/mL) was prepared with 0.1 M phosphate buffer (pH 8.0) firstly. Varied concentrations of test compounds (20 μL), 1 mM 5′-dithiobis (2-nitrobenzoic acid) (DTNB) solution (100 μL), and AChE solution (40 μL) were added in order to each well of a 96-well plate. After incubation for 15 min at 37 °C, the reaction was initiated by adding 20 μL of acetylthiocholine iodide (1 mM) to the mixed solution. The absorbance of each plate was instantly measured at 405 nm using a microplate reader. The inhibition of each compound was estimated using the formula (1−Ai/Ac) × 100, where Ai and Ac represent the absorbance of AChE in the presence and absence of inhibitors, respectively. Each experiment was replicated three times. Plotting curves of log concentration via percentage of inhibition, the IC50 values of all tested compounds were graphically analyzed (Graph Pad Prism 8.0).

Another data set concerns SH-SY5Y cells. Description: Cytotoxicity assay on SH-SY5Y cells (MTT). The format is cell-based. To be noted: 10, 25 and 50 μM, 24 h. How it is done: To evaluate the cytotoxicity of these new compounds, cell viability was tested on SH-SY5Y cells.
SH-SY5Y cells were grown in a 25 cm^2 culture flask in fresh MEM/F12 medium, supplemented with 10% fetal bovine serum, 100 U/mL penicillin, and 100 µg/mL streptomycin, and incubated at 37 °C with 5% CO2. Cells were seeded at a density of 1 × 10^4 cells per well in a 96-well plate. After incubation for 24 h, medium was removed. […] After 24 h treatment, 10 μL of 3-(4,5-dimethyl-2-thiazolyl)-2,5-diphenyl-2-H-tetrazolium bromide was added into each well. After 4 h of incubation at 37 °C, 100 μL of DMSO was added to dissolve the formazan crystals, and the mixture’s absorbance was measured at 490 nm under a microplate reader (FC/K3, Thermo, Waltham, MA, USA). The survival rate was estimated using the formula Ae/Ab × 100%, where Ae and Ab represent the absorbance of SH-SY5Y cells in the presence and absence of the tested drugs, respectively. Each experiment was replicated three times.

The nature of data set [2]: DPPH free radical scavenging assay. To be noted: 50 μM, mean ± SEM. How it is done:
DPPH assay was used to evaluate the free radical scavenging ability of the representative compound 10a, while Trolox was used as a control.
Compound 10a was tested for free radical-scavenging activity using 1,1-diphenyl-2-picryl-hydrazyl (DPPH) (D9132, Merck, Kenilworth, NJ, USA). To make a 0.1 mM concentration of DPPH stock solution, DPPH was dissolved in methanol. […] Trolox was used as a reference. The absorbance was measured at 545 nm after 30 min of reaction at 25 °C.

The next data set has as its target T3, Aβ (Homo sapiens, UniProt P05067).
T3 construct: Aggregation of β-amyloid peptide (Aβ) is one of the main histopathological hallmarks of AD; purchased Beyotime P9001
Description: Self-induced Aβ aggregation inhibition by thioflavin T assay. To be noted: read-out: Aβ Aggregation Inhibition (%). The data set is classed as biochemical. How it is done: Aggregation of β-amyloid peptide (Aβ) is one of the main histopathological hallmarks of AD [34].
A total of 1mg Aβ (P9001, Beyotime, Shanghai, China) was dissolved in 1 mL of hexafluoroisopropanol and aliquoted into 50 μL per tube. Then, 20 μL of DMSO was added into one tube of Aβ solution. The test compound was prepared as a 10 mM of stock solution with DMSO and diluted to 50 μM with PBS (including the control). Then, 20 μL of the test compound and 20 μL of the Aβ solution were added to a 96-well black plate, which was gently tapped to mix the solution, covered tightly and sealed with black tape to prevent evaporation of the solvent, and left in the dark at room temperature for 24 h. Then. 160 μL of THT solution at a concentration of 5 μM was added and the fluorescence absorption was measured at an excitation wavelength of 445 nm and an emission wavelength of 490 nm. The software GraphPad Prism 8.0 was used to analyze the data.

T2 sequence (O42275 24-633): as above
T3 sequence (P05067 672-713): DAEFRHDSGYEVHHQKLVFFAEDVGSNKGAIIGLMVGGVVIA

As for `COc1cc2c(cc1OC)C(=O)/C(=C/c1cc[n+](Cc3ccccc3)cc1C(C)=O)OC2.[Br-]` [10a, (Z)-3-Acetyl-1-benzyl-4-((6,7-dimethoxy-4-oxoisochroman-3-ylidene)methyl)pyridin-1-ium bromide], the “Type of AChE inhibition (Lineweaver-Burk plot)” value at AChE is “mixed-type inhibitor”. In addition, half-maximal inhibition in data set [1] (IC50) required 1.61 ± 0.02 nM. The “Cell viability on SH-SY5Y cells” value in the data set with SH-SY5Y cells was “did not significantly alter cell viability”. In data set [2], the “Reduced DPPH (%)” value is 31.89% and 31.89 ± 3.23%. Moreover, the inhibition at 25 µM on Aβ amounted to 57 ± 2.68%.
On to `Cc1c(C)c2c(c(C)c1O)CCC(C)(C(=O)O)O2` (stereo not drawn) [Trolox, reference compound], for which, in data set [2], the “Reduced DPPH (%)” value is on record as 72.41 ± 4.23%.
For the compound `Oc1ccc(/C=C/c2cc(O)cc(O)c2)cc1` [Resveratrol, reference compound], the inhibition at 25 µM on Aβ (25 μM, self-induced, thioflavin T, mean ± SEM) is 83.3 ± 5.23%.
`COc1cc2c(cc1OC)C(=O)/C(=C/c1cc[n+](Cc3cccc([N+](=O)[O-])c3)cc1C(C)=O)OC2` [10o, (Z)-3-Acetyl-4-((6,7-dimethoxy-4-oxoisochroman-3-ylidene)methyl)-1-(3-nitrobenzyl)pyridin-1-ium Bromide] came in with an IC50 in data set [1] of 22.4 ± 1.25 nM.
The same measure, in the same setting: the result for `COc1cc2c(cc1OC)C(=O)/C(=C/c1cc[n+](Cc3cccc(Br)c3)cc1C(N)=O)OC2` [13i, (Z)-1-(3-Bromobenzyl)-3-carbamoyl-4-((6,7-dimethoxy-4-oxoisochroman-3-ylidene)methyl)pyridin-1-ium Bromide] reads 38.1 ± 0.92 nM.
Still for that read-out and setting: the result for `COc1cc2c(cc1OC)C(=O)/C(=C/c1cc[n+](Cc3ccc([N+](=O)[O-])cc3)cc1C(C)=O)OC2` [10p, (Z)-3-Acetyl-4-((6,7-dimethoxy-4-oxoisochroman-3-ylidene)methyl)-1-(4-nitrobenzyl)pyridin-1-ium Bromide] reads 129 ± 2.68 nM; that for `COc1cc2c(cc1OC)C(=O)/C(=C/c1cc[n+](Cc3cccc(C(F)(F)F)c3)cc1C(N)=O)OC2` [13o, (Z)-3-Carbamoyl-4-((6,7-dimethoxy-4-oxoisochroman-3-ylidene)methyl)-1-(3-(trifluoromethyl)benzyl)pyridin-1-ium Bromide], 43 ± 0.44 nM.
`COc1cc2c(cc1OC)C(=O)/C(=C/c1cc[n+](Cc3ccccc3F)cc1C(N)=O)OC2.[Br-]` [13b, (Z)-3-Carbamoyl-4-((6,7-dimethoxy-4-oxoisochroman-3-ylidene)methyl)-1-(2-fluorobenzyl)pyridin-1-ium Bromide] had an IC50 in data set [1] of 3.54 ± 0.05 nM. For the same compound, the “Cell viability on SH-SY5Y cells” value in the data set on SH-SY5Y cells was “did not significantly alter cell viability”.
Regarding `COc1cc2c(cc1OC)C(=O)/C(=C/c1cc[n+](Cc3ccc(C)cc3)cc1C(C)=O)OC2` [10m, (Z)-3-Acetyl-4-((6,7-dimethoxy-4-oxoisochroman-3-ylidene)methyl)-1-(4-methylbenzyl)pyridin-1-ium Bromide], the IC50 in data set [1] is 54.1 ± 3.22 nM.
Same read-out and setting: the result for `COc1cc2c(cc1OC)C(=O)/C(=C/c1cc[n+](Cc3ccc(C(F)(F)F)cc3)cc1C(N)=O)OC2` [13p, (Z)-3-Carbamoyl-4-((6,7-dimethoxy-4-oxoisochroman-3-ylidene)methyl)-1-(4-(trifluoromethyl)benzyl)pyridin-1-ium Bromide] reads 441 ± 7.82 nM; that for `COc1cc2c(cc1OC)C(=O)/C(=C/c1cc[n+](Cc3ccccc3C(F)(F)F)cc1C(C)=O)OC2` [10q, (Z)-3-Acetyl-4-((6,7-dimethoxy-4-oxoisochroman-3-ylidene)methyl)-1-(2-(trifluoromethyl)benzyl)pyridin-1-ium Bromide], 18.9 ± 1.16 nM; that for `COc1cc2c(cc1OC)C(=O)/C(=C/c1cc[n+](Cc3cccc(Cl)c3)cc1C(C)=O)OC2` [10f, (Z)-3-Acetyl-1-(3-chlorobenzyl)-4-((6,7-dimethoxy-4-oxoisochroman-3-ylidene)methyl)pyridin-1-ium Bromide], 10.3 ± 1.08 nM.
For `COc1cc2c(cc1OC)C(=O)/C(=C/c1cc[n+](Cc3ccc(Br)cc3)cc1C(N)=O)OC2` [13j, (Z)-1-(4-Bromobenzyl)-3-carbamoyl-4-((6,7-dimethoxy-4-oxoisochroman-3-ylidene)methyl)pyridin-1-ium Bromide], half-maximal inhibition in data set [1] (IC50) was put at 422 ± 5.92 nM.
